# Source: ChEMBL document CHEMBL5620418
# The source made the active and inactive calls. The rule behind the calls is not given here.
# Test system: Mus musculus
# Test: Inhibition of morphine-induced intestinal propulsion function in mouse assessed as charcoal propulsion length at 10 mg/kg, ip by charcoal gavage and intestinal motility assays
# Type: functional, organism-based
smiles,measurement,value
COC(=O)/C=C/C(=O)N[C@@H]1CC[C@@]2(O)[C@H]3Cc4ccc(O)c5c4[C@@]2(CCN3CC2CC2)[C@H]1O5,inhibition,Active
